A word on the pIC50: it is −log10 of the IC50, conventionally taken in molar units.

The values below come from patent US20240182481A1 (Tango Therapeutics, Inc., priority 2021, published 2024).

The target in assay [1] is USP1-UAF1 (Homo sapiens, UniProt O94782). In words: Ubiquitin Rhodamine assay for USP1-UAF1 activity. The assay is classed as biochemical. The protocol: Certain compounds of the disclosure were assessed for USP1-UAF1 activity in a Ubiquitin Rhodamine assay as described in Example 135.
Sequence of USP1-UAF1 (O94782 whole entry): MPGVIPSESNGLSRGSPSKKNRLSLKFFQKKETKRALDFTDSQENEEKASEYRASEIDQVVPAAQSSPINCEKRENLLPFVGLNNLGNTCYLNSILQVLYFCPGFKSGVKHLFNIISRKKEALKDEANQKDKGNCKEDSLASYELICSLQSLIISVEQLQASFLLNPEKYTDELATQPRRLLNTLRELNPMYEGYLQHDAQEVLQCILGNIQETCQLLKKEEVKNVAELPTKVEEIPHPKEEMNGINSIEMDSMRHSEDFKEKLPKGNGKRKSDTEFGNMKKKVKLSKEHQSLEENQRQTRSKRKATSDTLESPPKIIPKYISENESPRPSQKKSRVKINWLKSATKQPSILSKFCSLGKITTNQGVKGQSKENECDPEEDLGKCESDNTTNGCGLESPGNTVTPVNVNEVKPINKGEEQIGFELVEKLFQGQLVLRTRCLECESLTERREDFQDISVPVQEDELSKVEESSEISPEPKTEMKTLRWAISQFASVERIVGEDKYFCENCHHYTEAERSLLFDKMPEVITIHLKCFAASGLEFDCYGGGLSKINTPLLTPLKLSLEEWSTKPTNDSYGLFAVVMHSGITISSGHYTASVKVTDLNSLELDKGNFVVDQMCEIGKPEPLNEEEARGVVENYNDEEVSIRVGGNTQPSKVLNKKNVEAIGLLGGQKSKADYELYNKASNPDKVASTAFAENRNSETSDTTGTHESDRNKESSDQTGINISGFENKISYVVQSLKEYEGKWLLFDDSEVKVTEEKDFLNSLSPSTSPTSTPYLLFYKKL
Sequence of USP1-UAF1 (Q8TAF3 whole entry partner): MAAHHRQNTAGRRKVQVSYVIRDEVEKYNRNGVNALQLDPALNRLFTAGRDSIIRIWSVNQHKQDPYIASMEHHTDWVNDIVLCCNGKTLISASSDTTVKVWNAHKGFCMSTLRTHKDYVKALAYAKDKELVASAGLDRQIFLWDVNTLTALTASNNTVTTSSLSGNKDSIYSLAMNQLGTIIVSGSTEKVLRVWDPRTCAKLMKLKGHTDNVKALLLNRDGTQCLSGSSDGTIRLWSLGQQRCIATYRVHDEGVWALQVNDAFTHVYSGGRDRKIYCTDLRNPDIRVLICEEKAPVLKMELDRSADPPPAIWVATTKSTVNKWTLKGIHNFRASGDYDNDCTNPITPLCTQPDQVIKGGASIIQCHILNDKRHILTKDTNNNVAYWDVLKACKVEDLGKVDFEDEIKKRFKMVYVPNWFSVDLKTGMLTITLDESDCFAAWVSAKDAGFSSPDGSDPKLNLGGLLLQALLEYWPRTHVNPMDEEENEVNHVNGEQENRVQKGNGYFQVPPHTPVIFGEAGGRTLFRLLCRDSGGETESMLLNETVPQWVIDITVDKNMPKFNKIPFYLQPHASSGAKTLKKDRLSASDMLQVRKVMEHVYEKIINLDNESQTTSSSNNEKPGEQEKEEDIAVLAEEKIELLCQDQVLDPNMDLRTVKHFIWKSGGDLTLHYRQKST
Assay [2] deals with MDA-MB-436 (BRCA1 mutant) cell line. Briefly: Viability assay in BRCA1 mutant cell line MDA-MB-436. Format: cell-based. To be noted: Homo sapiens, MDA-MB-436, viability, BRCA1 mutant MDA-MB-436; read-out: MDA-MB-436 rel IC50. From the text: (§1) Table 1 also indicates IC50 values in a viability assay for a non-isogenic pair of BRCA1 mutant (column 5—MDA-MB-436) and BRCA1 WT (column 6—HCC1954) cell lines. These values indicate the effect of treatment with compound on cell survival.

The test system of assay [3] is HCC1954 (BRCA1 WT) cell line. Briefly: Viability assay in BRCA1 WT cell line HCC1954. To be noted: Homo sapiens, read-out: HCC 1954 IC50 rel IC50. Format: cell-based.
Excerpt: as §1

Assay [4] relates to monoubiquitinated PCNA. Briefly: AlphaLISA assay measuring monoubiquitinated PCNA in MDA-MB-436. The assay is classed as cell-based. The settings on record: Homo sapiens, read-out: Alpha LISA IC50. From the text:
Table 1 also indicates IC50 values for exemplary compounds in an AlphaLISA assay measuring monoubiquitinated PCNA in a BRCA1 mutant cell line (MDA-MB-436; column 7).

pIC50: −log10 of the molar value. Bounds are passed on as bounds.

In the case of `COc1ncnc(C2CC2)c1-c1nc(C)c2[nH]cc(Cc3ccc(-c4nc(C(F)(F)F)cn4C)cc3)c2n1` [Compound 148, 2-(4-cyclopropyl-6-methoxy-pyrimidin-5-yl)-4-methyl-7-[[4-[1-methyl-4-(trifluoromethyl)imidazol-2-yl]phenyl]methyl]-5H-pyrrolo[3,2-d]pyrimidine], the pIC50 in assay [1] is more than 7.52; in assay [2], more than 7.00; in assay [3] it was not above 5.00; in assay [4], more than 7.00.
On to `COc1ncnc(C2CC2)c1-c1ncc2[nH]cc(Cc3ccc(-c4nc(C(F)(F)F)cn4C4COC4)cc3)c2n1` [Compound 154, 2-(4-cyclopropyl-6-methoxy-pyrimidin-5-yl)-7-[[4-[1-(oxetan-3-yl)-4-(trifluoromethyl)imidazol-2-yl]phenyl]methyl]-5H-pyrrolo[3,2-d]pyrimidine], for which the pIC50 in assay [1] is 7.00 to 7.52; in assay [2] it was more than 7.00; in assay [3], not above 5.00; in assay [4], 6.60 to 7.00.
Regarding `COc1ncnc(C2(F)CC2)c1-c1ncc2[nH]cc(Cc3ccc(-c4nc(C(F)(F)F)cn4C)cc3)c2n1` [Compound 87], the pIC50 in assay [1] is more than 7.52; in assay [2] it was more than 7.00; in assay [3] it was not above 5.00; in assay [4] it was more than 7.00.
On to `CC(C)c1ccccc1-c1cc2c(CN3CCN(c4nc(C(F)(F)F)cn4C)CC3)c[nH]c2cn1` [Compound 71], for which the pIC50 in assay [1] is 5.00 to 7.00; in assay [2] it was 5.00 to 6.60; in assay [3], 5.00 to 6.60; in assay [4], 5.00 to 6.60.
Take `COc1ncnc(C2CC2)c1-c1ncc2[nH]cc(Cc3ccc(-c4nc(C(F)(F)F)cn4C)cc3F)c2n1` [Compound 120, 2-(4-cyclopropyl-6-methoxy-pyrimidin-5-yl)-7-[[2-fluoro-4-[1-methyl-4-(trifluoromethyl)imidazol-2-yl]phenyl]methyl]-5H-pyrrolo[3,2-d]pyrimidine]: the pIC50 is more than 7.52 in assay [1], more than 7.00 in assay [2], not above 5.00 in assay [3] and more than 7.00 in assay [4].
For the compound `CCCOc1ncccc1-c1ncc2[nH]cc(Cc3ccc(-c4nc(C(F)(F)F)cn4C)cc3)c2n1` [Compound 34, 7-[[4-[1-methyl-4-(trifluoromethyl)imidazol-2-yl]phenyl]methyl]-2-(2-propoxy-3-pyridyl)-5H-pyrrolo[3,2-d]pyrimidine], the pIC50 in assay [1] is 7.00 to 7.52; in assay [2], 6.60 to 7.00; in assay [3], not above 5.00; in assay [4], 6.60 to 7.00.
For `CC(C)c1ccccc1-c1cc2c(Nc3ccc(-c4nc(C(F)(F)F)cn4C)cc3)c[nH]c2cn1` [Compound 17], the pIC50 is 5.00 to 7.00 in assay [1], 5.00 to 6.60 in assay [2], 5.00 to 6.60 in assay [3] and more than 7.00 in assay [4].
As for `Cn1cc(C(F)(F)F)nc1-c1ccc(Cc2n[nH]c3cnc(-c4c(C5CC5)ccnc4C4CC4)nc23)cc1` [Compound 174], the pIC50 is more than 7.52 in assay [1], 6.60 to 7.00 in assay [2], not above 5.00 in assay [3] and 6.60 to 7.00 in assay [4].
With `Cn1cc(C(F)(F)F)nc1-c1ccc(Cc2c[nH]c3cnc(-c4cccnc4OCC(F)(F)F)nc23)cc1` [Compound 78], the pIC50 is more than 7.52 in assay [1], more than 7.00 in assay [2], 5.00 to 6.60 in assay [3] and more than 7.00 in assay [4].
Regarding `Cn1cc(C(F)(F)F)nc1-c1ccc(Cc2n[nH]c3cnc(-c4c(C5CC5)ncnc4C4CC4)nc23)cc1` [Compound 183, 5-(4,6-dicyclopropylpyrimidin-5-yl)-3-[[4-[1-methyl-4-(trifluoromethyl)imidazol-2-yl]phenyl]methyl]-1H-pyrazolo[4,3-d]pyrimidine], the pIC50 in assay [1] was more than 7.52; in assay [2] it was more than 7.00; in assay [3] it was not above 5.00; in assay [4] it was more than 7.00.
For the compound `CC(C)c1ccccc1-c1ncc2[nH]cc(Cc3ccc(-c4nc(C(F)(F)F)cn4C)cc3)c2n1` [Compound 10, 2-(2-isopropylphenyl)-7-[[4-[1-methyl-4-(trifluoromethyl)imidazol-2-yl]phenyl]methyl]-5H-pyrrolo[3,2-d]pyrimidine], the pIC50 in assay [1] is more than 7.52; in assay [2], more than 7.00; in assay [3], not above 5.00; in assay [4], more than 7.00.
For the compound `CNc1ncnc(C2CC2)c1-c1ncc2[nH]cc(Cc3ccc(-c4nc(C(F)(F)F)cn4C)cc3)c2n1` [Compound 175], the pIC50 in assay [1] was 5.00 to 7.00; in assay [2], 6.60 to 7.00; in assay [3] it was not above 5.00; in assay [4], 6.60 to 7.00.
Consider `Cn1cc(C(F)(F)F)nc1-c1ccc(C(O)c2c[nH]c3cnc(-c4c(OC(F)F)ncnc4C4CC4)nc23)cc1` (centres unmarked) [Compound 168, [2-[4-cyclopropyl-6-(difluoromethoxy)pyrimidin-5-yl]-5H-pyrrolo[3,2-d]pyrimidin-7-yl]-[4-[1-methyl-4-(trifluoromethyl)imidazol-2-yl]phenyl]methanol], for which the pIC50 in assay [1] was 7.00 to 7.52; in assay [2] it was more than 7.00; in assay [3], 5.00 to 6.60; in assay [4] it was more than 7.00.
With `COc1ncnc(C2CC2)c1-c1ncc2c(n1)c(Sc1ccc(-c3nc(C(F)(F)F)cn3C)cc1)cn2C` [Compound 166], the pIC50 in assay [1] was 5.00 to 7.00; in assay [2], 6.60 to 7.00; in assay [3], not above 5.00; in assay [4], 5.00 to 6.60.
For `Cn1cc(C(F)(F)F)nc1-c1ccc(Cc2c[nH]c3cnc(-c4cccnc4N4CCC4)nc23)cc1` [Compound 67, 2-[2-(azetidin-1-yl)-3-pyridyl]-7-[[4-[1-methyl-4-(trifluoromethyl)imidazol-2-yl]phenyl]methyl]-5H-pyrrolo[3,2-d]pyrimidine], the pIC50 in assay [1] is 5.00 to 7.00; in assay [2], 5.00 to 6.60; in assay [3] it was not above 5.00; in assay [4], 5.00 to 6.60.
With `COc1ncnc(C2CC2)c1-c1ncc2c(n1)c(Cc1ccc(-c3nc(C(F)(F)F)cn3C)cc1)cn2CC(F)(F)F` [Compound 125, 2-(4-cyclopropyl-6-methoxy-pyrimidin-5-yl)-7-[[4-[1-methyl-4-(trifluoromethyl)imidazol-2-yl]phenyl]methyl]-5-(2,2,2-trifluoroethyl)pyrrolo[3,2-d]pyrimidine], the negative-log IC50 (pIC50) in assay [1] is more than 7.52; in assay [2], more than 7.00; in assay [3], 5.00 to 6.60; in assay [4], more than 7.00.
As to `COc1ncnc(C2CC2)c1-c1ncc2[nH]c(CN(C)C)c(Cc3ccc(-c4nc(C(F)(F)F)cn4C)cc3)c2n1` [Compound 176, 1-[2-(4-cyclopropyl-6-methoxy-pyrimidin-5-yl)-7-[[4-[1-methyl-4-(trifluoromethyl)imidazol-2-yl]phenyl]methyl]-5H-pyrrolo[3,2-d]pyrimidin-6-yl]-N,N-dimethyl-methanamine], the pIC50 in assay [1] is 7.00 to 7.52; in assay [2] it was more than 7.00; in assay [3], not above 5.00; in assay [4], more than 7.00.
`CCn1cc(C(F)(F)F)nc1-c1ccc(Cc2n[nH]c3cnc(-c4c(OC)ncnc4C4CC4)nc23)cc1` [Compound 165, 5-(4-cyclopropyl-6-methoxypyrimidin-5-yl)-3-(4-(1-ethyl-4-(trifluoromethyl)-1H-imidazol-2-yl)benzyl)-1H-pyrazolo[4,3-d]pyrimidine]: the pIC50 in assay [1] is more than 7.52; in assay [2] it was more than 7.00; in assay [3] it was not above 5.00; in assay [4] it was more than 7.00.
As for `COc1ncnc(C#N)c1-c1ncc2[nH]cc(Cc3ccc(-c4nc(C(F)(F)F)cn4C)cc3)c2n1` [Compound 134], the pIC50 was 7.00 to 7.52 in assay [1], 6.60 to 7.00 in assay [2], not above 5.00 in assay [3] and 5.00 to 6.60 in assay [4].
Regarding `Cn1cc(C(F)(F)F)nc1-c1ccc(Cc2c[nH]c3cnc(-c4c(C5CC5)ccnc4C4CC4)nc23)cc1` [Compound 122], the pIC50 in assay [1] is more than 7.52; in assay [2], 6.60 to 7.00; in assay [3], not above 5.00; in assay [4], 5.00 to 6.60.
With `COc1ncnc(C2CC2)c1-c1ncc2c(n1)c(Cc1ccc(-c3nc(C(F)(F)F)cn3C)cc1)nn2C(C)C` (single isomer, unassigned) [Compound 98, 5-(4-cyclopropyl-6-methoxy-pyrimidin-5-yl)-1-isopropyl-3-[[4-[1-methyl-4-(trifluoromethyl)imidazol-2-yl]phenyl]methyl]pyrazolo[4,3-d]pyrimidine], the pIC50 is 7.00 to 7.52 in assay [1], more than 7.00 in assay [2], not above 5.00 in assay [3] and more than 7.00 in assay [4].
In the case of `COc1ncnc(C2CC2)c1-c1ncc2c(n1)c(Cc1ccc(-c3nc(C(F)(F)F)cn3C)cc1)cn2S(C)(=O)=O` [Compound 146, 2-(4-cyclopropyl-6-methoxy-pyrimidin-5-yl)-5-methylsulfonyl-7-[[4-[1-methyl-4-(trifluoromethyl)imidazol-2-yl]phenyl]methyl]pyrrolo[3,2-d]pyrimidine], the pIC50 in assay [1] was more than 7.52; in assay [2], more than 7.00; in assay [3], not above 5.00; in assay [4] it was 6.60 to 7.00.
With `COc1ncnc(C2CC2)c1-c1ncc2[nH]cc(Cc3ccc(-n4nc(C(F)(F)F)cc4C)c(F)c3)c2n1` [Compound 88, 2-(4-cyclopropyl-6-methoxy-pyrimidin-5-yl)-7-[[3-fluoro-4-[5-methyl-3-(trifluoromethyl)pyrazol-1-yl]phenyl]methyl]-5H-pyrrolo[3,2-d]pyrimidine], the pIC50 was more than 7.52 in assay [1], more than 7.00 in assay [2], not above 5.00 in assay [3] and more than 7.00 in assay [4].
